These results are taken from patent US8901337B2, “Metal complexes having dual histone deacetylase inhibitory and DNA-binding activity” (Royal College of Surgeons in Ireland, priority 2009, dated 2014).

For data set [1], the system named is ovarian cancer cell line A2780 P. The experiment in a line: MTS in vitro cytotoxicity, A2780 P. The data set is classed as cell-based, human. Here is the method: (§1) Cells were cultured in the appropriate media. […] In order to retain resistance 1 μM cisplatin was added to the media of the A2780 cisR cells every third passage. A2780 cisR cells are resistant to cisplatin through a combination of decreased uptake, enhanced DNA repair/tolerance, and elevated reduced glutathione levels
(§2) All cells were kept in a humidified atmosphere with 5% CO2 at 37° C.; cells from confluent monolayers were removed from flasks by trypsin/EDTA solution and their viability determined by the trypan blue exclusion test.
(§3) Cell growth was determined by the [3-(4,5-dimethylthiazol-2-yl)-5-(3-carboxymethoxyphenyl)-2-(4-sulfophenyl)-2H-tetrazolium, inner salt, (MTS test, Promega, Southampton, UK), a colorimetric assay based on the ability of the viable cells to reduce a soluble yellow tetrazolium salt to blue formazan. 10,000 ovarian cancer cells or 3,000 fibroblast cells for example were seeded per well onto 96-well plates in 100 μl of the appropriate culture medium. 24 hr after sowing the cells, the media was removed and the cells were treated by adding 100 μl of the compound media solutions at the appropriate concentrations. cis-[Pt(NH3)2(malSAHA−2H)], cisplatin and cis-[Pt(NH3)2(mal)] were prepared freshly in cell culture media. […] The maximum percentage of dmso present in any well was less than 0.1% (v/v). cis-[Pt(NH3)2(malBel—2H)], belinostat and malbelinostat were freshly prepared in dimethyl formamide (DMF) and diluted in culture media prior to the MTS assay. The maximum percentage of DMF present in any well was 0.5% (v/v). A range of concentrations between 1 μM and 100 μM was used.
(§4) After 72 hr of treatment, 20 μl of the MTS reagent was added to each well and the plates incubated for 2 hr at 37° C. […] The percentages of surviving cells relative to untreated controls were determined.

In data set [2] the test system is non-tumorigenic human dermal fibroblast cell line (NHDF). Nature of the data set: MTS in vitro cytotoxicity, NHDF. The data set is classed as cell-based. Here is the method:
In addition Normal Neonatal Human Dermal Fibroblast, NHDF, cells were cultured in Fibroblast Basal Medium (FBM®, Clonetics, Walkersville, USA) supplemented with hFGF-B, insulin, 5% FBS and gentamicin/amphotericin-B (FGM®-2 SingleQuots, Clonetics, Walkersville, USA).
as §2, §3, §4

Data set [3] has as its system cisplatin resistant ovarian cancer cell line A2780 cisR. Nature of the data set: MTS in vitro cytotoxicity, A2780 cisR. The data set is classed as cell-based, human. The method, then: as §1, §2, §3, §4
A further data set concerns cell line (CH1). The experiment in a line: MTS in vitro cytotoxicity, CH1. The data set is classed as cell-based. Particulars: 72 hours, Table 1, read-out: IC50 values against CH1. The method, then:
as §2, §3, §4

For a further data set, the system named is CH1 (cancer cells). Nature of the data set: Cellular uptake of Pt (FAAS), CH1. The data set is classed as cell-based. The conditions noted are these: 10 μM, 72 hours treatment. The method, then:
(§5) Cellular uptake of Pt compounds was measured in SKBR, SW480, A549, A2780P and CH1 cells. The cells were seeded in 60 mm tissue culture dishes with 10 mL of their respective medium and after overnight incubation, the cells were treated with the Pt complexes for 72 h at 10 μM concentration. The cell monolayers at the end of the incubation with the Pt complexes were washed (twice) with ice-cold phosphate buffered saline (PBS), trypsinized and harvested into cold (4° C.) PBS. Cell suspensions were centrifuged and the pellets were stored in PBS at −80° C. until assayed. Afterward, the pellets were digested by high pressure microwave mineralization and Pt content was determined by flameless atomic absorption spectrophotometry (FAAS). The results of cellular Pt uptake were corrected for adsorption effects. All experiments were made in triplicate.^17

The test system of data set [4] is colon cancer cell line (SW480). The experiment in a line: MTS in vitro cytotoxicity, SW480. The data set is classed as cell-based. The conditions noted are these: 72 hours, Table 1, read-out: IC50 values against SW480. Here is the method: as §2, §3, §4
The subject of data set [5] is breast cancer cell line (SKBR). Nature of the data set: MTS in vitro cytotoxicity, SKBR. The data set is classed as cell-based. The conditions noted are these: 72 hours, Table 1, read-out: IC50 values against SKBR. Here is the method: as §2, §3, §4
In data set [6] the test system is A2780 P (ovarian cancer cells). The experiment in a line: Cellular uptake of Pt (FAAS), A2780 P. Particulars: 10 μM, 72 hours treatment. The data set is classed as cell-based, human. Here is the method:
as §5, with “The cells were seeded in 60 mm tissue culture dishes with 10 mL of their respective medium and after overnight incubation, the cells were treated with the Pt complexes for 72 h at 10 μM concentration.” left out

Data set [7] concerns SKBR (breast cancer cells). Nature of the data set: Cellular uptake of Pt (FAAS), SKBR. The conditions noted are these: 10 μM, 72 hours treatment. The data set is classed as cell-based. The method, then: as §5
Data set [8] relates to DNA in SW480 cells (colon cancer). The experiment in a line: Pt binding to DNA in cultured cells (ICP-MS), SW480. The data set is classed as cell-based. The conditions noted are these: 43 μM of Pt complexes, 2 hours of cell treatment. Here is the method: (§6) Pt DNA binding of Pt complexes was measured in SW480 cells (colon cancer) and CH1 cells (lymphoma) or alternatively A2780 P and A2780 cisR cells (sensitive and resistant to cisplatin respectively). The cells were seeded in 60 mm tissue culture dishes with 10 ml of their respective medium. After overnight incubation the medium was removed and replaced with 10 ml of the respective medium containing a platinum complex giving a final concentration of 43 or 40 μM depending on the experiment. The cells were incubated with a given Pt complex for either 2 or 4 h depending on the experiment. The cells were trypsinised and centrifuged. The supernantant was removed and the cells washed twice with 1×PBS and centrifuged. The pellet was re-suspended in DNA buffer to which Proteinase K (20 mg/mL) and 10% SDS were added. After a gentle shake and incubation at 45° C. for two hours, RNAse (100 mg/mL) was added and the cells were incubated at 37° C. overnight. The volume of supernatant was noted and an equal volume of phenol was added.
The resulting mixture was shook for 10 min, then centrifuged for 10 min at 10° C. The supernatant was transferred into a new centrifuge tube (15 ml) and the volume was noted. To this was added an equal volume of phenol and chloroform/isoamylalcohol (24:1). The resulting mixture was shook for 10 min, then centrifuged for 10 min at 10° C. (3000 RPM). The supernatant was transferred into a new centrifuge tube (15 mL) and the volume was noted. To this was added an equal volume of chloroform. The resulting mixture was shook for 10 min, then centrifuged for 10 min at 10° C. The supernatant was transferred into a new centrifuge tube (15 mL) and the volume was noted. To this was added a volume that is 1/10 of the supernatant of 3 M sodium acetate (Ph 5.2) and three times the volume of cold 100% isopropanol (from freezer). The solution was shook gently until the DNA is precipitated. […] The absorbance of the DNA by was measured by UV spectrophotometry at 260 nm and 280 nm and the concentration of DNA calculated. Platinum bound to DNA was determined by ICP-MS.

The test system of data set [9] is DNA in CH1 cells (lymphoma). Nature of the data set: Pt binding to DNA in cultured cells (ICP-MS), CH1. The data set is classed as cell-based. Particulars: 43 μM of Pt complexes, 2 hours of cell treatment. The method, then: as §6
The resulting mixture was shook for 10 min, then centrifuged for 10 min at 10° C. The supernatant was transferred into a new centrifuge tube (15 ml) and the volume was noted. […] The absorbance of the DNA by was measured by UV spectrophotometry at 260 nm and 280 nm and the concentration of DNA calculated. Platinum bound to DNA was determined by ICP-MS.

The test system of data set [10] is SW480 (colon cancer cells). Nature of the data set: Cellular uptake of Pt (FAAS), SW480. The data set is classed as cell-based. Particulars: 10 μM, 72 hours treatment. Here is the method:
as §5

A further data set deals with A549 (lung cancer cells). Nature of the data set: Cellular uptake of Pt (FAAS), A549. The data set is classed as cell-based. The conditions noted are these: 10 μM, 72 hours treatment. Here is the method:
as §5

In data set [11] the test system is liver cell lines (Hep-G2). Nature of the data set: MTS in vitro cytotoxicity, Hep-G2. The conditions noted are these: 72 hours, Table 1, read-out: IC50 values against Hep-G2. The data set is classed as cell-based. Here is the method:
as §2, §3, §4

The test system of data set [12] is lung cancer cell line (A549). The experiment in a line: MTS in vitro cytotoxicity, A549. The data set is classed as cell-based. The conditions noted are these: 72 hours, Table 1, read-out: IC50 values against A549. The method, then: as §2, §3, §4
Another data set has as its target T1, HDAC1 (Homo sapiens, UniProt Q13547).
T1 construct: purchased Cayman Chemicals, Ann Arbor, USA
Nature of the data set: Cayman HDAC1 Inhibitor Screening Assay Kit (fluorescence). The data set is classed as biochemical. The method, then: The assay provides a fast two-step fluorescence-based method for measuring HDAC activity. Briefly, in the first step an acetylated lysine residue was incubated with HDAC1 and potential inhibitors. Deacetylation sensitises the substrate so that treatment with the HDAC developer in the second step releases a fluorescent product. The fluorescent reaction product was analysed using a plate reader with an excitation wavelengths of 350 nm and emission wavelengths of 460 nm.

Like-named read-outs stand apart in the source and are kept apart here.

T1 sequence (Q13547 whole entry): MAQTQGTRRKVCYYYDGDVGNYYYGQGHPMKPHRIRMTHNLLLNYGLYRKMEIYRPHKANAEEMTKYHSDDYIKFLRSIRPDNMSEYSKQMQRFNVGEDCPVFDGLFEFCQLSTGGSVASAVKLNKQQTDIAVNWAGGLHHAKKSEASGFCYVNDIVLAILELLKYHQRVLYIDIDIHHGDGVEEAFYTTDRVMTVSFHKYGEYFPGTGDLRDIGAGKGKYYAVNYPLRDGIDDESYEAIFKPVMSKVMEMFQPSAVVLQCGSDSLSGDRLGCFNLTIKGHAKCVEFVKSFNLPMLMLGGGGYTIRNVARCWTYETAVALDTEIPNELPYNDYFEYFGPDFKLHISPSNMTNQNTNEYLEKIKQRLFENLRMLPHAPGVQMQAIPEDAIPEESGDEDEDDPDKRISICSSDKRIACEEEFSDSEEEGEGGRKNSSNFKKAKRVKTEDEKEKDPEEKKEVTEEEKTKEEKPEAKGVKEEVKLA

A word on the IC50: it is the concentration at which inhibition is half-maximal. With `O=C(/C=C/c1cccc(S(=O)(=O)Nc2ccccc2)c1)NO` [belinostat, reference compound], the IC50 in data set [1] (Homo sapiens, A2780, 72 h, read-out: IC50 (μM) ± S.E.M. against A2780P) was less than 1 µM; in data set [2] (Homo sapiens, NHDF, 72 h, read-out: IC50 (μM) ± S.E.M. against NHDF), 3 ± 0.5 µM; in data set [3] (Homo sapiens, A2780cisR, 72 h, read-out: IC50 (μM) ± S.E.M. against A2780CisR), less than 1 µM.
Turning to `[NH2][Pt]1([NH2])[O]C(=O)CC(=O)[O]1` [cis-[Pt(NH3)2(mal)]], the IC50 in the data set on cell line (CH1) was found to be 2.5 ± 0.5 µM; in data set [1] (72 hours, MTS, Table 1, read-out: IC50 values against A2780 P), 16 ± 4.3 µM; in [2] (72 hours, MTS, Table 1, read-out: IC50 values against NHDF) it was 48 ± 2.2 µM; in data set [4], 23.2 ± 1.5 µM; in data set [5], 14.6 ± 2.5 µM; in data set [3] (72 hours, MTS, Table 1, read-out: IC50 values against A2780cisR), 81 ± 5.8 µM. Further, the IC50 in data set [11] came to 44.5 ± 0.9 µM; in [12], 6.3 µM. For the same compound, in the data set on CH1 (cancer cells), the “Uptake of Pt complexes into CH1” value is recorded as 282.6 ± 20.6 pmol Pt/2 × 10^6 cell. Besides, in data set [6], the “Uptake of Pt complexes into A2780 P” value is given as 220.95 ± 10.95 pmol Pt/2 × 10^6 cell. Further, the “Uptake of Pt complexes into SKBR” value in data set [7] is given as 488.15 ± 38.4 pmol Pt/2 × 10^6 cell. Further, the “DNA-bound Pt in SW480” value in data set [8] was 1.25 · 10^−15 moles of Pt/μg of DNA. Besides, the “DNA-bound Pt in CH1” value in data set [9] is 1.76 · 10^−15 moles of Pt/μg of DNA. The “Uptake of Pt complexes into SW480” value in data set [10] came to 127.35 ± 27.4 pmol Pt/2 × 10^6 cell. The “Uptake of Pt complexes into A549” value in the data set with A549 (lung cancer cells) stood at 357.1 ± 47.1 pmol Pt/2 × 10^6 cell.
On to `O=C(/C=C/c1ccc(S(=O)(=O)Nc2ccc(CC(C(=O)O)C(=O)O)cc2)cc1)NO` [malBel], for which the IC50 in [1] (72 hours, MTS, Table 5, read-out: IC50 (μM) ± S.E.M. against A2780P) was 45.8 µM; in [2] (72 hours, MTS, Table 5, read-out: IC50 (μM) ± S.E.M. against NHDF), 28.9 µM; in data set [3] (72 hours, MTS, Table 5, read-out: IC50 (μM) ± S.E.M. against A2780CisR) it was 32.1 µM.
Regarding `O=C(CCCCCCC(=O)Nc1ccc(CC(C(=O)O)C(=O)O)cc1)NO` [malSAHA], the “inhibition of HDAC1 (in words)” value against HDAC1 is “inhibit HDAC1”. At HDAC1 (at 200 μM), this compound yielded an IC50 of 0.0595 µM.
